According to patent US8242111B2, “Cyclic inhibitors of 11β-hydroxysteroid dehydrogenase 1” (Vitae Pharmaceuticals, Inc., priority 2008, dated 2012):

Assays:
[1] = molecular target: T1, human 11β-HSD1 (Homo sapiens, UniProt P28845); assay: Biological Test Example 1: inhibition of a microsomal preparation of 11β-HSD1 (SPA); format: biochemical; settings: for inhibition at 0.1 µM: read-out: Average % inhibition at 100 nM
T1 construct: expressed in transfected cells; host or cells: CHO cells (microsomes)
T1 sequence (P28845 whole entry): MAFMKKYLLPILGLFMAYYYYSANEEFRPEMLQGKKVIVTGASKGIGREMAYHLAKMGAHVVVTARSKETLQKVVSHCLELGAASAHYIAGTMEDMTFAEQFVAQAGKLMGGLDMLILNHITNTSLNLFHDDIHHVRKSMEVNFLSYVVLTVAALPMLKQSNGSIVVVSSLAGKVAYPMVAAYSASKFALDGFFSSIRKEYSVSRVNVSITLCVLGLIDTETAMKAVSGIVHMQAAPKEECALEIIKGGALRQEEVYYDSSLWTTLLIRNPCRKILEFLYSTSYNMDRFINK

[2] = molecular target: T1, human 11β-HSD1; assay: Biological Test Example 4: inhibition of microsomal 11β-HSD1 in the presence of 50% human plasma; format: biochemical; settings: examples; for IC50: 50% human plasma; for Shift: IC50 in Biological Test Example 4 divided by IC50 in Biological Test Example 1
[3] = Biological Test Example 1, read-out: IC50 Range
[4] = Biological Test Example 1 IC50 (nM), examples
[5] = read-out: Biological Test Example 1 IC50, comparator compounds

Compound | IC50 [1, 3] [nM] | IC50 [1, 4] [nM] | inhibition at 0.1 µM [1] [%] | IC50 [2] [nM] | Shift [2] | IC50 [1, 5] [nM]
CC(C)(O)C[C@]1(c2ccccc2)CCN([C@H]2CCCN(c3ncccc3F)C2)C(=O)O1 [Example 1, (S)-3-((S)-1-(3-fluoropyridin-2-yl)piperidin-3-yl)-6-(2-hydroxy-2-methylpropyl)-6-phenyl-1,3-oxazinan-2-one] | < 100 | 12.7 | 85.5 | – | – | –
CC(C)(O)C[C@]1(c2ccccc2)CCN([C@H]2CCCN(c3ncccc3C(F)(F)F)C2)C(=O)O1 [Example 2, (S)-6-(2-hydroxy-2-methylpropyl)-6-phenyl-3-((S)-1-(3-(trifluoromethyl)pyridin-2-yl)piperidin-3-yl)-1,3-oxazinan-2-one] | < 100 | 22.6 | 77.8 | 210 | 9.3 | –
CC(C)(O)C[C@]1(c2ccccc2)CCN([C@H]2CCCN(c3cc(C(F)(F)F)ccn3)C2)C(=O)O1 [Example 3, (S)-6-(2-hydroxy-2-methylpropyl)-6-phenyl-3-((S)-1-(4-(trifluoromethyl)pyridin-2-yl)piperidin-3-yl)-1,3-oxazinan-2-one] | < 100 | 4.4 | 91.3 | 68.7 | 15.6 | –
CC(C)(O)C[C@]1(c2ccccc2)CCN([C@H]2CCCN(c3ccc(C(F)(F)F)cn3)C2)C(=O)O1 [Example 4, (S)-6-(2-hydroxy-2-methylpropyl)-6-phenyl-3-((S)-1-(5-(trifluoromethyl)Pyridin-2-yl)piperidin-3-yl)-1,3-oxazinan-2-one] | < 100 | 4.1 | 89.8 | 21.6 | 5.3 | –
CC(C)(O)C[C@]1(c2ccccc2)CCN([C@H]2CCCN(c3cccc(C(F)(F)F)n3)C2)C(=O)O1 [Example 5, (S)-6-(2-hydroxy-2-methylpropyl)-6-phenyl-3-((S)-1-(6-(trifluoromethyl)pyridin-2-yl)piperidin-3-yl)-1,3-oxazinan-2-one] | < 100 | 11.8 | 86 | – | – | –
CC(C)(O)C[C@]1(c2ccccc2)CCN([C@H]2CCCN(c3ncc(F)cn3)C2)C(=O)O1 [Example 7, (S)-3-((S)-1-(5-fluoropyrimidin-2-yl)piperidin-3-yl)-6-(2-hydroxy-2-methylpropyl)-6-phenyl-1,3-oxazinan-2-one] | < 100 | 6.1 | 89.5 | 14.8 | 2.4 | –
Cc1cc(N2CCC[C@H](N3CC[C@](CC(C)(C)O)(c4ccccc4)OC3=O)C2)nc(C)n1 [Example 9, (S)-3-((S)-1-(2,6-dimethylpyrimidin-4-yl)piperidin-3-yl)-6-(2-hydroxy-2-methylpropyl)-6-phenyl-1,3-oxazinan-2-one] | < 100 | 84.3 | 40.2 | – | – | –
COC(=O)c1cnc(N2CCC[C@H](N3CC[C@](CC(C)(C)O)(c4ccccc4)OC3=O)C2)nc1 [Example 10] | < 100 | 5.5 | 85.8 | 69.2 | 12.7 | –
CC(C)(O)C[C@]1(c2ccccc2)CCN([C@H]2CCCN(c3ccnc(C(F)(F)F)n3)C2)C(=O)O1 [Example 11, (S)-6-(2-hydroxy-2-methylpropyl)-6-phenyl-3-((S)-1-(2-(trifluoromethyl)pyrimidin-4-yl)piperidin-3-yl)-1,3-oxazinan-2-one] | < 100 | 19.1 | 75.3 | – | – | –
COc1cnc(N2CCC[C@H](N3CC[C@](CC(C)(C)O)(c4ccccc4)OC3=O)C2)nc1 [Example 12, (S)-6-(2-hydroxy-2-methylpropyl)-3-((S)-1-(5-methoxypyrimidin-2-yl)piperidin-3-yl)-6-phenyl-1,3-oxazinan-2-one] | < 100 | 4.3 | 91.7 | 10.4 | 2.4 | –
Cc1cnc(N2CCC[C@H](N3CC[C@](CC(C)(C)O)(c4ccccc4)OC3=O)C2)s1 [Example 13, (S)-6-(2-hydroxy-2-methylpropyl)-3-((S)-1-(5-methylthiazol-2-yl)piperidin-3-yl)-6-phenyl-1,3-oxazinan-2-one] | < 100 | 13.5 | 90.4 | – | – | –
CC(C)(O)C[C@]1(c2ccccc2)CCN([C@H]2CCN(c3ncc(Cl)cn3)C2)C(=O)O1 [Example 14, (S)-3-((S)-1-(5-chloropyrimidin-2-yl)pyrrolidin-3-yl)-6-(2-hydroxy-2-methylpropyl)-6-phenyl-1,3-oxazinan-2-one] | < 100 | 3.5 | 93.8 | 7.8 | 2.2 | –
CC(C)(O)C[C@]1(c2ccccc2)CCN([C@H]2CCN(c3ccc(C(F)(F)F)cn3)C2)C(=O)O1 [Example 15, (S)-6-(2-hydroxy-2-methylpropyl)-6-phenyl-3-((S)-1-(5-(trifluoromethyl)pyridin-2-yl)pyrrolidin-3-yl)-1,3-oxazinan-2-one] | < 100 | 4.3 | 92.2 | 37.6 | 8.7 | –
O=C1O[C@@](CCCO)(c2ccc(F)cc2)CCN1[C@H]1CCCN(c2ccc(C(F)(F)F)cn2)C1 [Example 16, (R)-6-(4-fluorophenyl)-6-(3-hydroxypropyl)-3-((S)-1-(5-(trifluoromethyl)pyridin-2-yl)piperidin-3-yl)-1,3-oxazinan-2-one] | < 100 | 1.4 | 94.9 | 14.4 | 10.0 | –
N#Cc1ccc(N2CCC[C@H](N3CC[C@](CCCO)(c4ccc(F)cc4)OC3=O)C2)nc1 [Example 17, 6((S)-3-((R)-6-(4-fluorophenyl)-6-(3-hydroxypropyl)-2-oxo-1,3-oxazinan-3-yl)piperidin-1-yl)nicotinonitrile] | < 100 | – | 94.7 | – | – | –
NC(=O)c1ccc(N2CCC[C@H](N3CC[C@](CCCO)(c4ccc(F)cc4)OC3=O)C2)nc1 [Example 18, 6-((S)-3-((R)-6-(4-fluorophenyl)-6-(3-hydroxypropyl)-2-oxo-1,3-oxazinan-3-yl)piperidin-1-yl)nicotinamide] | < 100 | 26.4 | 81.6 | – | – | –
CNC(=O)c1ccc(N2CCC[C@H](N3CC[C@](CCCO)(c4ccc(F)cc4)OC3=O)C2)nc1 [Example 19, 6-((S)-3-((R)-6-(4-fluorophenyl)-6-(3-hydroxypropyl)-2-oxo-1,3-oxazinan-3-yl)piperidin-1-yl)-N-methylnicotinamide] | < 100 | 65.6 | 55.2 | – | – | –
CN(C)C(=O)c1ccc(N2CCC[C@H](N3CC[C@](CCCO)(c4ccc(F)cc4)OC3=O)C2)nc1 [Example 20, 6-((S)-3-((R)-6-(4-fluorophenyl)-6-(3-hydroxpropyl)-2-oxo-1,3-oxazinan-3-yl)piperidin-1-yl)-N,N-dimethylnicotinamide] | < 100 | 27.4 | 72.5 | – | – | –
CC(C)(O)C[C@]1(c2ccccc2)CCN([C@H]2CCCN(c3ncc(C(=O)NC(C)(C)C)s3)C2)C(=O)O1 [Example 21, N-tert-butyl-2-((S)-3-((S)-6-(2-hydroxy-2-methylpropyl)-2-oxo-6-phenyl-1,3-oxazinan-3-yl)piperidin-1-yl)thiazole-5-carboxamide] | 190 | > 100 | 27.3 | – | – | –
Cc1nnc(N2CCC[C@H](N3CC[C@](CC(C)(C)O)(c4ccccc4)OC3=O)C2)cc1Cl [Example 22, (S)-3-((S)-1-(5-chloro-6-methylpyridazin-3-yl)piperidin-3-yl)-6-(2-hydroxy-2-methylpropyl)-6-phenyl-1,3-oxazinan-2-one] | 190 | > 100 | 20.9 | – | – | –
CC(C)(O)C[C@]1(c2ccccc2)CCN([C@H]2CCN(c3nccc(C(F)(F)F)n3)C2)C(=O)O1 [Example 23, (S)-6-(2-hydroxy-2-methylpropyl)-6-phenyl-3-((S)-1-(4-(trifluoromethyl)pyrimidin-2-yl)pyrrolidin-3-yl)-1,3-oxazinan-2-one] | < 100 | 5.8 | 94.1 | 52.8 | 9.2 | –
COc1cnc(N2CC[C@H](N3CC[C@](CC(C)(C)O)(c4ccccc4)OC3=O)C2)nc1 [Example 24, (S)-6-(2-hydroxy-2-methylpropyl)-3-((S)-1-(5-methoxypyrimidin-2-yl)pyrrolidin-3-yl)-6-phenyl-1,3-oxazinan-2-one] | < 100 | 42.3 | 67.8 | – | – | –
(S)-3-((S)-1-(3-fluoropyridin-2-yl)piperidin-3-yl)-6-(2-hydroxy-2-methylpropyl)-6-phenyl-1,3-oxazinan-2-one [Example 1] | – | – | – | – | – | 0.77
(S)-3-((S)-1-(5-fluoropyrimidin-2-yl)piperidin-3-yl)-6-(2-hydroxy-2-methylpropyl)-6-phenyl-1,3-oxazinan-2-one [Example 7] | – | – | – | – | – | 0.99
(S)-6-(2-hydroxy-2-methylpropyl)-6-phenyl-3-((S)-1-(3-(trifluoromethyl)pyridin-2-yl)piperidin-3-yl)-1,3-oxazinan-2-one [Example 2] | – | – | – | – | – | 1.8
(S)-6-(2-hydroxy-2-methylpropyl)-6-phenyl-3-((S)-1-(6-(trifluoromethyl)pyridin-2-yl)piperidin-3-yl)-1,3-oxazinan-2-one [Example 5] | – | – | – | – | – | 0.51
